# Activity calls are given as the source filed them. No cut-off for these calls is given here.
# Assays:
# [1] = Clearance in Sprague-Dawley rat at 1 mg/kg, iv and 5 mg/kg, po; assay type: ADME, organism-based; details: in vivo
# [2] = Half life in Sprague-Dawley rat at 1 mg/kg, iv and 5 mg/kg, po; assay type: ADME, organism-based; details: in vivo
# Histamine H3 receptor [3] = biological target: Histamine H3 receptor (Rattus norvegicus, UniProt Q9QYN8); assay: Displacement of [3H]NAMH from rat cloned […] expressed in CHO cells; assay type: cell-based
# Histamine H3 receptor (Rattus norvegicus, UniProt Q9QYN8), sequence (Q9QYN8 whole entry): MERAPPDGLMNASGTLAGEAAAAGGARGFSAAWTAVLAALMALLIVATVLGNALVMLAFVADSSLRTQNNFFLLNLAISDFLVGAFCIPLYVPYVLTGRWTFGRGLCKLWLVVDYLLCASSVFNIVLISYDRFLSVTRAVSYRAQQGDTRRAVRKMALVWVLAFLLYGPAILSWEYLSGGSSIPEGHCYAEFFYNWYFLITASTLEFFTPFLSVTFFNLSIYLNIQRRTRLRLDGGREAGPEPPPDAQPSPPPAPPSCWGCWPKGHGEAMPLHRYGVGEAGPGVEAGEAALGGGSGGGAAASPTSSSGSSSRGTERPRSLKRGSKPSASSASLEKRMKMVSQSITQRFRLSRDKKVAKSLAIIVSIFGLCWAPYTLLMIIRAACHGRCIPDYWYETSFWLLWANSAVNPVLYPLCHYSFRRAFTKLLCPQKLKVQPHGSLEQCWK
# Histamine H3 receptor [4] = biological target: Histamine H3 receptor (Homo sapiens, UniProt Q9Y5N1); assay: Displacement of [3H]NAMH from human cloned […] expressed in CHO cells; assay type: cell-based
# Histamine H3 receptor (Homo sapiens, UniProt Q9Y5N1), sequence (Q9Y5N1 whole entry): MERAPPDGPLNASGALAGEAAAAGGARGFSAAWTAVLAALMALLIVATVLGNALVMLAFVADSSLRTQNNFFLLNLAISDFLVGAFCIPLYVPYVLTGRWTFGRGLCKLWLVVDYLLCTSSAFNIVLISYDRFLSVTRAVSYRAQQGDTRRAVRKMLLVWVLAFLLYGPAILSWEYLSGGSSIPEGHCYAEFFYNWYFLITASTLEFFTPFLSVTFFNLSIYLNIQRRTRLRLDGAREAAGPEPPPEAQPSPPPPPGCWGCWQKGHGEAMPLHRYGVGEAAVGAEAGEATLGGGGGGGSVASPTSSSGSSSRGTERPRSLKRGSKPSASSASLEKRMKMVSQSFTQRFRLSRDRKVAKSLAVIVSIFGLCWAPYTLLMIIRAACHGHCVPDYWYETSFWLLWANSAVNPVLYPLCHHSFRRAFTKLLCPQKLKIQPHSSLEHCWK
# [5] = Oral bioavailability in Sprague-Dawley rat at 5 mg/kg; assay type: ADME, organism-based; details: in vivo
# [6] = Ratio of drug level in brain to plasma in Sprague-Dawley rat at 10 mg/kg, ip after 1 hr; assay type: ADME, organism-based; design: dose 10 mg/kg, route intraperitoneal; details: brain and plasma, read-out: BPR
# [7] = Oral bioavailability in Sprague-Dawley rat at 10 mg/kg; assay type: ADME, organism-based; details: in vivo
# Rattus norvegicus [8] = assay: Cognitive effect in Sprague-Dawley rat social recognition model assessed as enhancement of short-term memory at 0.01 to 0.1 mg/kg, po measured after 120 mins; assay type: functional, organism-based
# Mus musculus = assay: Toxicity in mouse assessed as changes in behavioral and physiologic state up to 300 mg/kg, po by Irwin test; assay type: organism-based; design: dose 300 mg/kg, route oral; details: in vivo
# Salmonella typhimurium = assay: Mutagenic activity in Salmonella Typhimurium by Ames test; assay type: toxicity, organism-based; details: salmonella enterica subsp. enterica serovar typhimurium
# [9] = Half life in Beagle dog at 1 mg/kg, iv and 3 mg/kg, po; assay type: ADME, organism-based, Canis lupus familiaris; details: in vivo
# [10] = Half life in human; assay type: ADME, organism-based; details: in vivo
# Cytochrome P450 1A2 = biological target: T1, Cytochrome P450 1A2 (Homo sapiens, UniProt P05177); assay: Inhibition of CYP1A2; assay type: ADME
# T1 sequence (P05177 whole entry): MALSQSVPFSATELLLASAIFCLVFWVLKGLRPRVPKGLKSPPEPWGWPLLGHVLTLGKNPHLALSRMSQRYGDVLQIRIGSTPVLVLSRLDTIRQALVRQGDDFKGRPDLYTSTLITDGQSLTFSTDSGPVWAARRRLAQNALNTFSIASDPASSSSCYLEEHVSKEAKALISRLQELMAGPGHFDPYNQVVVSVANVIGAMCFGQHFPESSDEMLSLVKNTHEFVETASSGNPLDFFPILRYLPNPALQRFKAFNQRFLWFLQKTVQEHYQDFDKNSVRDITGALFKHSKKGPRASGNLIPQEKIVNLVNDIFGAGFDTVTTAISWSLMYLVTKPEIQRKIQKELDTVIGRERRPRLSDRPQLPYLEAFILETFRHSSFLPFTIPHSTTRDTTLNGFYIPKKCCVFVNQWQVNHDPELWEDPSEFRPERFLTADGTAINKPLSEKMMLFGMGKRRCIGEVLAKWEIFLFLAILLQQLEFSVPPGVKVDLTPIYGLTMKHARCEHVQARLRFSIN
# Cytochrome P450 2C9 = Cytochrome P450 2C9 (Homo sapiens, UniProt P11712); assay: Inhibition of CYP2C9; assay type: ADME
# Cytochrome P450 2C9, sequence (P11712 whole entry): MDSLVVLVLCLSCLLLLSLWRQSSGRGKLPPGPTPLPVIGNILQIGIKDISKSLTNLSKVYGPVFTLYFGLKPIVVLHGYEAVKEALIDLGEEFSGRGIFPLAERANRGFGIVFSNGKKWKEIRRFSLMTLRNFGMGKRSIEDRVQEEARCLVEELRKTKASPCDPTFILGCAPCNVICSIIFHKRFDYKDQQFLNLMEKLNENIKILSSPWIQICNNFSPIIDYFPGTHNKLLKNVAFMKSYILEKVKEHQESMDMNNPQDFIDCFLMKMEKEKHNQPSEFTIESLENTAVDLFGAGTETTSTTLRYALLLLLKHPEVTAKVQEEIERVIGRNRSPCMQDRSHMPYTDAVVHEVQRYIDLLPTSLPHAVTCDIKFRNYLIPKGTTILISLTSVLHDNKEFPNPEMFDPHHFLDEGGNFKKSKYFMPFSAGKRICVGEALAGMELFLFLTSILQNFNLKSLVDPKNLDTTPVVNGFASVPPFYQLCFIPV
# Cytochrome P450 2C19 = Cytochrome P450 2C19 (Homo sapiens, UniProt P33261); assay: Inhibition of CYP2C19; assay type: ADME
# Cytochrome P450 2C19, sequence (P33261 whole entry): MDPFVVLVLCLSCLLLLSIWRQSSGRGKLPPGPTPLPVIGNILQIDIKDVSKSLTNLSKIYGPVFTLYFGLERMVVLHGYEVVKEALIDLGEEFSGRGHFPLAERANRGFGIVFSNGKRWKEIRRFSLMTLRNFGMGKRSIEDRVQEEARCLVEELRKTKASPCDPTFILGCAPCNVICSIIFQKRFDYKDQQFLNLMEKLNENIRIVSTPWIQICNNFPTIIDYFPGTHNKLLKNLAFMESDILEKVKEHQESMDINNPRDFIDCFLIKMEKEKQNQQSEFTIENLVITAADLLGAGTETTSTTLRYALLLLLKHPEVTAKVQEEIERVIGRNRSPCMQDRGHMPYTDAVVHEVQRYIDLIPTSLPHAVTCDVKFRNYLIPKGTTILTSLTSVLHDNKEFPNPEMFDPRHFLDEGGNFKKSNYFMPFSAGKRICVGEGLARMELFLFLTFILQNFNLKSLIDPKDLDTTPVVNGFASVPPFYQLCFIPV
# Cytochrome P450 2D6 = Cytochrome P450 2D6 (Homo sapiens, UniProt P10635); assay: Inhibition of CYP2D6; assay type: ADME
# Cytochrome P450 2D6, sequence (P10635 whole entry): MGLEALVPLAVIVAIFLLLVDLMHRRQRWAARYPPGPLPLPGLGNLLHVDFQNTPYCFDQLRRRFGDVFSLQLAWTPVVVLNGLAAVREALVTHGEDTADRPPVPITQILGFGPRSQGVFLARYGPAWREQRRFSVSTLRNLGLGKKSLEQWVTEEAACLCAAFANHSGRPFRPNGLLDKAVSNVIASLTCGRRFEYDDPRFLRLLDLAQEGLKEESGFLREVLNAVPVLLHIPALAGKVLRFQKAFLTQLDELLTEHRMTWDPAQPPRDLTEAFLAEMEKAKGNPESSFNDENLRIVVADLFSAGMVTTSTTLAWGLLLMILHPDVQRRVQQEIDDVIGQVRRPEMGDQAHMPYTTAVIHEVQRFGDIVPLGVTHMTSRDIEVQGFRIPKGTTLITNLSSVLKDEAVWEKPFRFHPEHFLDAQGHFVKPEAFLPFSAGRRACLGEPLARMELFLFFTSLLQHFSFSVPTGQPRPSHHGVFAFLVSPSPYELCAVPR
# Cytochrome P450 3A4 = Cytochrome P450 3A4 (Homo sapiens, UniProt P08684); assay: Inhibition of CYP3A4; assay type: ADME
# Cytochrome P450 3A4, sequence (P08684 whole entry): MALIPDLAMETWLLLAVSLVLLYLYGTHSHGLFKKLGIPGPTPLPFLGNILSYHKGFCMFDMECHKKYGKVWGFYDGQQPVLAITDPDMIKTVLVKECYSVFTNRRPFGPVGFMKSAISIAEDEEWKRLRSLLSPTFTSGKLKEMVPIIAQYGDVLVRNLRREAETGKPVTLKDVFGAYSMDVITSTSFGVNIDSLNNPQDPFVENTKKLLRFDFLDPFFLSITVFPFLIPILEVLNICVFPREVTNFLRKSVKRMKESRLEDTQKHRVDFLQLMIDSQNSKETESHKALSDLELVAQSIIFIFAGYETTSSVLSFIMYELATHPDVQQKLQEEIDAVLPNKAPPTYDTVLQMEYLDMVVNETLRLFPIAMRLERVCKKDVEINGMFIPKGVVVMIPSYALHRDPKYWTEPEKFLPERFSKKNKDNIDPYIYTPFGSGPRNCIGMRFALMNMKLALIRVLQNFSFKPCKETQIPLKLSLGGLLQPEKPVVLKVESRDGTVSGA
# [11] = Apparent permeability in human Caco2 cells; assay type: ADME, cell-based; details: Caco-2
# [12] = Solubility of the compound in water at pH 2; assay type: physicochemical
# [13] = Solubility of the compound in water at pH 7.4; assay type: physicochemical
# [14] = Plasma protein binding in Sprague-Dawley rat; assay type: ADME, cell-free; details: read-out: PPB (converted)
# [15] = Plasma protein binding in Beagle dog; assay type: ADME, cell-free, Canis lupus familiaris; details: read-out: PPB (converted)
# [16] = Plasma protein binding in human; assay type: ADME, cell-free; details: read-out: PPB (converted)
# [17] = Fraction unbound in Sprague-Dawley rat brain homogenate; assay type: ADME, tissue-based
# [18] = Half life in Sprague-Dawley rat at 1 mg/kg, iv; assay type: ADME, organism-based; design: dose 1 mg/kg, route intravenous; details: in vivo
# [19] = Half life in Beagle dog at 1 mg/kg, iv; assay type: ADME, organism-based, Canis lupus familiaris; design: dose 1 mg/kg, route intravenous; details: in vivo
# [20] = Half life in cynomolgus monkey at 1 mg/kg, iv; assay type: ADME, organism-based, Macaca fascicularis; design: dose 1 mg/kg, route intravenous; details: in vivo
# [21] = Volume of distribution in Sprague-Dawley rat at 1 mg/kg, iv and 10 mg/kg, po; assay type: ADME, organism-based; details: in vivo
# [22] = Volume of distribution in Beagle dog at 1 mg/kg, iv and 3 mg/kg, po; assay type: ADME, organism-based, Canis lupus familiaris; details: in vivo
# [23] = Volume of distribution in cynomolgus monkey at 1 mg/kg, iv and 3 mg/kg, po; assay type: ADME, organism-based, Macaca fascicularis; details: in vivo
# [24] = Clearance in Sprague-Dawley rat at 1 mg/kg, iv and 10 mg/kg, po; assay type: ADME, organism-based; details: in vivo
# [25] = Clearance in Beagle dog at 1 mg/kg, iv and 3 mg/kg, po; assay type: ADME, organism-based, Canis lupus familiaris; details: in vivo
# [26] = Clearance in cynomolgus monkey at 1 mg/kg, iv and 3 mg/kg, po; assay type: ADME, organism-based, Macaca fascicularis; details: in vivo
# [27] = AUC in Sprague-Dawley rat at 10 mg/kg, po; assay type: ADME, organism-based; design: dose 10 mg/kg, route oral; details: plasma
# [28] = AUC in Beagle dog at 3 mg/kg, po; assay type: ADME, organism-based, Canis lupus familiaris; design: dose 3 mg/kg, route oral; details: plasma
# [29] = AUC in cynomolgus monkey at 3 mg/kg, po; assay type: ADME, organism-based, Macaca fascicularis; design: dose 3 mg/kg, route oral; details: plasma
# [30] = Cmax in Sprague-Dawley rat at 1 mg/kg, iv and 10 mg/kg, po; assay type: ADME, organism-based; details: in vivo
# [31] = Cmax in Beagle dog at 1 mg/kg, iv and 3 mg/kg, po; assay type: ADME, organism-based, Canis lupus familiaris; details: in vivo
# [32] = Cmax in cynomolgus monkey at 1 mg/kg, iv and 3 mg/kg, po; assay type: ADME, organism-based, Macaca fascicularis; details: in vivo
# [33] = Half life in Sprague-Dawley rat at 1 mg/kg, iv and 10 mg/kg, po; assay type: ADME, organism-based; details: in vivo
# [34] = Half life in cynomolgus monkey at 1 mg/kg, iv and 3 mg/kg, po; assay type: ADME, organism-based, Macaca fascicularis; details: in vivo
# [35] = Oral bioavailability in Beagle dog at 3 mg/kg; assay type: ADME, organism-based, Canis lupus familiaris; details: in vivo
# [36] = Oral bioavailability in cynomolgus monkey at 3 mg/kg; assay type: ADME, organism-based, Macaca fascicularis; details: in vivo
# Rattus norvegicus [37] = assay: Inhibition of RAMH-induced dispogenia in po dosed Long Evans rat measured for 30 mins; assay type: functional
smiles,measurement,setting,value
Cc1cccnc1-n1ncc(-c2ccc(OCCCN3CCC[C@H]3C)cc2)cc1=O,clearance,[1],34 mL/min/kg
same,half-life,[2],1.8 h
same,Ki,Histamine H3 receptor [3],8.6 nM
same,Ki,Histamine H3 receptor [4],2.5 nM
same,bioavailability,[5],30%
same,Kp at 1 h,[6],0.2
O=c1cc(-c2ccc(OCCCN3CCCCCC3)cc2)cnn1-c1ccccn1,clearance,[1],25 mL/min/kg
same,half-life,[2],1.8 h
same,Ki,Histamine H3 receptor [3],12 nM
same,Ki,Histamine H3 receptor [4],5.3 nM
same,bioavailability,[5],28%
same,Kp at 1 h,[6],1.8
C[C@@H]1CCCN1CCCOc1ccc(-c2ccc(=O)[nH]n2)cc1 [IRDABISANT],Ki,Histamine H3 receptor [3],8.5 nM
same,bioavailability,[7],83%
same,Kp at 1 h,[6],2.6
Cc1nn(C)c(=O)cc1-c1ccc(OCCCN2CCCCC2)cc1,clearance,[1],48 mL/min/kg
same,half-life,[2],1.6 h
same,Ki,Histamine H3 receptor [3],18 nM
same,Ki,Histamine H3 receptor [4],8.9 nM
same,bioavailability,[5],69%
same,Kp at 1 h,[6],2.4
Cc1cccnc1-n1nc(C)c(-c2ccc(OCCCN3CCC[C@H]3C)cc2)cc1=O,clearance,[1],7 mL/min/kg
same,half-life,[2],1.4 h
same,Ki,Histamine H3 receptor [3],17 nM
same,Ki,Histamine H3 receptor [4],3 nM
same,bioavailability,[5],20%
same,Kp at 1 h,[6],0.5
Cc1nn(-c2ccccn2)c(=O)cc1-c1ccc(OCCCN2CCC[C@H]2C)cc1,clearance,[1],13 mL/min/kg
same,half-life,[2],1.3 h
same,Ki,Histamine H3 receptor [3],5 nM
same,Ki,Histamine H3 receptor [4],1.7 nM
same,bioavailability,[5],15%
same,Kp at 1 h,[6],0.7
Cc1n[nH]c(=O)cc1-c1ccc(OCCCN2CCCCC2)cc1,clearance,[1],30 mL/min/kg
same,half-life,[2],0.8 h
same,Ki,Histamine H3 receptor [3],23 nM
same,Ki,Histamine H3 receptor [4],7.9 nM
same,bioavailability,[5],28%
same,Kp at 1 h,[6],1.3
C[C@@H]1CCCN1CCCOc1ccc(-c2cnn(C)c(=O)c2)cc1,clearance,[1],32 mL/min/kg
same,half-life,[2],1 h
same,Ki,Histamine H3 receptor [3],5.5 nM
same,Ki,Histamine H3 receptor [4],1.9 nM
same,bioavailability,[5],19%
same,Kp at 1 h,[6],3.3
C[C@@H]1CCCN1CCCOc1ccc(-c2cnn(-c3ccccn3)c(=O)c2)cc1,Activity,Rattus norvegicus [8],Active
same,Activity,Mus musculus,Non-toxic
same,Activity,Salmonella typhimurium,Toxic
same,clearance,[1],19 mL/min/kg
same,half-life,[2],1.7 h
same,bioavailability,[7],78%
same,Kp at 1 h,[6],1.1
same,half-life,[9],0.8 h
same,half-life,[10],> 0.667 h
same,IC50,Cytochrome P450 1A2,> 30000 nM
same,IC50,Cytochrome P450 2C9,> 30000 nM
same,IC50,Cytochrome P450 2C19,> 30000 nM
same,IC50,Cytochrome P450 2D6,> 30000 nM
same,IC50,Cytochrome P450 3A4,> 30000 nM
same,Papp,[11],13.7 ×10⁻⁶ cm/s
same,solubility,[12],1400 µg/mL
same,solubility,[13],900 µg/mL
same,fraction unbound,[14],0.55
same,fraction unbound,[15],0.68
same,fraction unbound,[16],0.56
same,fraction unbound,[17],0.39
same,half-life,[18],1.7 h
same,half-life,[19],3.6 h
same,half-life,[20],3.9 h
same,Vd,[21],3 L/kg
same,Vd,[22],5.9 L/kg
same,Vd,[23],7.1 L/kg
same,clearance,[24],20 mL/min/kg
same,clearance,[25],19 mL/min/kg
same,clearance,[26],21 mL/min/kg
same,AUC,[27],6800 ng·h/mL
same,AUC,[28],2400 ng·h/mL
same,AUC,[29],2080 ng·h/mL
same,Cmax,[30],898 ng/mL
same,Cmax,[31],417 ng/mL
same,Cmax,[32],326 ng/mL
same,half-life,[33],4.5 h
same,half-life,[34],6.5 h
same,bioavailability,[35],92%
same,bioavailability,[36],96%
same,inhibition,Rattus norvegicus [37],Dose-dependent effect
same,ED50,Rattus norvegicus [37]; 0.5 h,0.07 mg/kg
Cn1ncc(-c2ccc(OCCCN3CCCCCC3)cc2)cc1=O,Ki,Histamine H3 receptor [3],22 nM
same,Ki,Histamine H3 receptor [4],8.1 nM

# From ChEMBL document CHEMBL1955733, “Optimization of 5-pyridazin-3-one phenoxypropylamines as potent, selective histamine H₃ receptor antagonists with potent cognition enhancing activity” (J Med Chem, 2012)
